Measured values as given in patent US8703483B2, “Reagents and methods for using human embryonic stem cells to evaluate toxicity of pharmaceutical compounds and other chemicals” (Wisconsin Alumni Research Foundation, priority 2006, dated 2014).

System: human embryonic stem cells
Experiment: Metabolite profiling (LC/ESI-TOF mass spectrometry) of extracellular media of hESCs treated with alcohol
Type: cell-based
Details: ETOH 0.3
Text: Binned masses were annotated in silico by querying the neutral masses in several different databases. These databases included Metlin, Biological Magnetic Resonance Data Bank (BMRB), NIST Chemistry WebBook, and the Human Metabolome Database. A mass was considered identified when its neutral mass was within 10 ppm of a known compound annotated in one of the databases listed above.

CCO [ETOH]
Fold: Unknown, mass 268.2487, RT 42.3656 (4 D): −1.517 fold
Fold: Unknown, mass 284.9798, RT 5.69776 (4 D): −1.2223 fold
Fold: Unknown, mass 286.1519, RT 14.88092 (4 D): −1.862 fold
Fold: Unknown, mass 293.1952, RT 66.86661 (4 D): −2.154 fold
Fold: Unknown, mass 293.9773, RT 4.014175 (4 D): −2.267 fold
Fold: Unknown, mass 294.1535, RT 20.67831 (4 D): −1.422 fold
Fold: Unknown, mass 295.1521, RT 8.967061 (4 D): 1.467 fold
Fold: Unknown, mass 301.1345, RT 7.719471 (4 D): 2.678 fold
Fold: Unknown, mass 315.6732, RT 26.51229 (4 D): −2.865 fold
Fold: Unknown, mass 322.1166, RT 23.90107 (4 D): −2.4215 fold
Fold: Unknown, mass 332.1367, RT 20.72194 (4 D): −2.077 fold
Fold: Unknown, mass 340.9252, RT 5.033976 (4 D): 2.625 fold
Fold: Unknown, mass 353.2765, RT 3.85935 (4 D): 4.904 fold
Fold: Unknown, mass 365.1606, RT 20.16372 (4 D): −1.925 fold
Fold: Unknown, mass 375.1886, RT 26.07722 (4 D): −4.751 fold
Fold: Unknown, mass 375.1898, RT 11.47109 (4 D): 2.132 fold
Fold: Unknown, mass 383.1721, RT 15.20829 (4 D): 3.377 fold
Fold: Unknown, mass 387.0812, RT 19.97914 (4 D): −1.699 fold
Fold: Unknown, mass 388.2349, RT 46.346 (4 D): −1.532 fold
Fold: Unknown, mass 393.1886, RT 19.69092 (4 D): −2.059 fold
Fold: Unknown, mass 396.1687, RT 6.259963 (4 D): 2.422 fold
Fold: Unknown, mass 403.1984, RT 17.27421 (4 D): −2.303 fold
Fold: Unknown, mass 417.2338, RT 33.09057 (4 D): −1.78 fold
Fold: Unknown, mass 417.2386, RT 21.14975 (4 D): −1.573 fold
Fold: Unknown, mass 420.0513, RT 13.35295 (4 D): −1.902 fold
Fold: Unknown, mass 421.2201, RT 27.46219 (4 D): −2.273 fold
Fold: Unknown, mass 429.2533, RT 18.03482 (4 D): −2.201 fold
Fold: Unknown, mass 443.2339, RT 30.87201 (4 D): 2.171 fold
Fold: Unknown, mass 443.3216, RT 67.0705 (4 D): 1.688 fold
Fold, Unknown metabolite, Mass 994.0917 (4 D, retention time 3.646902): 1.605
Fold, Unknown metabolite, Mass 980.075 (4 D, retention time 3.680188): 1.481
Fold, Unknown metabolite, Mass 1008.072 (4 D, retention time 3.705141): 1.416
Fold, Unknown metabolite, Mass 820.8181 (4 D, retention time 4.613879): −1.571
Fold, Unknown metabolite, Mass 611.8727 (4 D, retention time 4.936704): 2.01
Fold, Unknown metabolite, Mass 1038.786 (4 D, retention time 5.177162): 1.588
Fold, Unknown metabolite, Mass 921.0025 (4 D, retention time 5.399211): 1.945
Fold, Unknown metabolite, Mass 555.8505 (4 D, retention time 5.742094): −1.3396
Fold, Unknown metabolite, Mass 1040.323 (4 D, retention time 5.8905): −1.479
Fold, Unknown metabolite, Mass 509.6704 (4 D, retention time 5.891069): 1.468
Fold, metabolite Ethanesulfonic acid, Mass 579.2519 (4 D, retention time 5.903169): −2.112
Fold, Unknown metabolite, Mass 646.7084 (4 D, retention time 5.903429): 2.946
Fold, Unknown metabolite, Mass 732.007 (4 D, retention time 5.918027): 1.761
Fold, Unknown metabolite, Mass 658.2544 (4 D, retention time 8.787827): −3.21
Fold, Unknown metabolite, Mass 502.2258 (4 D, retention time 13.78553): 1.866
Fold, Unknown metabolite, Mass 566.2265 (4 D, retention time 14.9927): 1.624
Fold, Unknown metabolite, Mass 555.2406 (4 D, retention time 15.78741): 2.471
Fold, Unknown metabolite, Mass 577.2825 (4 D, retention time 16.90923): −8.917
Fold, Unknown metabolite, Mass 505.2616 (4 D, retention time 18.36887): 2.009
Fold, Unknown metabolite, Mass 489.2127 (4 D, retention time 21.72729): 2.372
Fold, Unknown metabolite, Mass 462.2217 (4 D, retention time 22.95657): 1.936
Fold, metabolite L-Oleandrosyl-oleandolide, Mass 530.314 (4 D, retention time 23.87065): 2.212
Fold, Unknown metabolite, Mass 574.3397 (4 D, retention time 24.7039): 1.524
Fold, metabolite L-Urobilinogen, Mass 596.3543 (4 D, retention time 25.14927): 1.545
Fold, Unknown metabolite, Mass 661.3846 (4 D, retention time 26.7452): 1.547
Fold, Unknown metabolite, Mass 447.2509 (4 D, retention time 29.86415): −1.858
Fold, Unknown metabolite, Mass 478.2761 (4 D, retention time 30.28867): 1.51
Fold, metabolite glucuronide, Mass 471.1928 (4 D, retention time 30.37291): 2.726
Fold, Unknown metabolite, Mass 449.2653 (4 D, retention time 30.45343): −2.414
Fold, Unknown metabolite, Mass 471.7804 (4 D, retention time 30.72707): −3.441
Fold, Unknown metabolite, Mass 510.8202 (4 D, retention time 31.22083): 2.502
Fold, Unknown metabolite, Mass 559.8329 (4 D, retention time 31.97996): −2.566
Fold, Unknown metabolite, Mass 635.4065 (4 D, retention time 32.08734): 1.395
Fold, Unknown metabolite, Mass 531.2876 (4 D, retention time 32.50661): 2.361
Fold, Unknown metabolite, Mass 603.3535 (4 D, retention time 32.67372): −2.94
Fold, Unknown metabolite, Mass 460.9391 (4 D, retention time 33.51823): −3.602
Fold, Unknown metabolite, Mass 619.3409 (4 D, retention time 33.68866): 2.126
Fold, Unknown metabolite, Mass 796.9917 (4 D, retention time 34.60124): 1.689
Fold, Unknown metabolite, Mass 751.4193 (4 D, retention time 35.028): 1.845
Fold, Unknown metabolite, Mass 531.3191 (4 D, retention time 35.58454): −3.0409
Fold, metabolite Neu5Acalpha2-3Galbeta1-4Glcbeta-Sp, Mass 702.2497 (4 D, retention time 40.84822): −2.216
Fold, Unknown metabolite, Mass 518.3914 (4 D, retention time 46.57666): 2.289
Fold, Unknown metabolite, Mass 731.0954 (4 D, retention time 47.76987): −3.25
Fold, Unknown metabolite, Mass 576.096 (4 D, retention time 47.90467): 1.558
Fold, Unknown metabolite, Mass 444.2237 (4 D, retention time 51.58546): 2.03
Fold, Unknown metabolite, Mass 468.2002 (4 D, retention time 51.6158): 1.92
Fold, Unknown metabolite, Mass 526.2773 (4 D, retention time 51.73057): 2.715
Fold, Unknown metabolite, Mass 446.0431 (4 D, retention time 54.8719): 1.934
Fold, Unknown metabolite, Mass 531.3736 (4 D, retention time 66.31491): 2.874
Fold, Unknown metabolite, Mass 487.3472 (4 D, retention time 66.73744): 2.878
Fold, Unknown metabolite, Mass 528.3631 (4 D, retention time 71.36012): 2.361
Fold, Unknown metabolite, Mass 556.3971 (4 D, retention time 88.02533): −2.384
Fold: 1,3-Dimethyl-8-isoquinolinol, mass 173.084, RT 20.23014 (24 H): −1.44 fold
Fold: 3,4-Dihydroxybutyric acid, mass 129.0452, RT 16.73904 (24 H): 1.796 fold
Fold: 3-Methoxytyramine / Phenylephrine, mass 167.0941, RT 23.6763 (24 H): −2.83 fold
